Measurements published in patent US20040224995A1 (University of North Texas Health Science Center at Fort …, priority 2003, published 2004).

Columns and labels:
[1] = tested on: PPARγ; conditions: Kliewer et al., 1995; cited from earlier work
[2] = tested on: HT-22 cells; experiment: HT-22 cell viability during BSO exposure; type: cell-based, mouse
Procedure: (§1) The in vitro model used for oxidative cell death was based upon glutamate, hydrogen peroxide, and buthionine sulfoximine (“BSO”) administration to HT-22 mouse hippocampal, C6 rat glioma, and RGC-5 retinal ganglion cell lines. The ease that the above cell lines are cultured is well known in the art of cell culture. Additionally, these cell lines are suitable for screening a various number of compounds described in the present invention.
(§2) Although not wanting to be bound by theory, the toxicity of glutamate in HT-22 (32) and C6 glioma (33) cell lines is mediated through oxidative stress. HT-22 cells lack ionotropic N-methyl-D-aspartate (“NMDA”) glutamate receptors, and the glutamate-induced cell death appears to occur via a slow onset oxidative stress (32,34,35). Glutamate blocks cystine uptake by inhibiting the glutamate/cystine antiporter in both HT-22 (32) and C6 glioma (33) cell lines. […] In some of the experiments, the viability of cells was determined using 2.5 μM calcein AM assay in phosphate-buffered saline (PBS 1×). After 25 minutes of incubation, live cells were distinguished by the presence of intracellular esterase activity, which cleaves the calcein AM dye, producing a bright green fluorescence, as shown in FIG. 22. Viability was measured in Relative Fluorescent Units (“RFU”), and expressed as percentage of vehicle-treated control values. […]

[3] = tested on: RGC-5 cells; experiment: RGC-5 cell viability during BSO exposure; type: cell-based
Procedure: as §1, §2

[4] = tested on: ischemic lesion after MCAO; experiment: Middle cerebral artery occlusion (MCAO) in ovariectomized female rats; type: in vivo, rat
Source text: (§3) Evaluating the role of cyclopentenone PGs and TZD's has also been completed in vivo. […] Troglitazone reduced the resulting infarct size by about 50% compared to vehicle (corn oil treated animals). This effective protection from a transient focal ischemic event by troglitazone argues that selective PPARγ agonists may be useful neuroprotectants during neurodegenerative events (e.g. stroke).
(§4) As shown below, the results from our experiments comprise results that indicate potent neuroprotective TZD's, as were used in neuronal cell lines are also effective in an animal model. Although not wanting to be bound by theory, the rat is the appropriate animal model for assessing the effects of drugs on neuronal damage, as the compounds to be evaluated are intended for use in humans. […] Female Sprague Dawley rats were purchased from Harlan in Indianapolis, Ind. Rats were housed in pairs in hanging, stainless steel cages in a temperature-controlled rooms (25±1° C.) with a daily light cycle (on from 0700 to 1900 h daily). All rats were allowed free access to laboratory chow and tap water. All procedures performed on animals will were reviewed and approved by the University of North Texas Health Science Center Institutional Animal Care and Use Committee (“ACUC”).
(§5) The female Sprague Dawley rats (225-250 g BW) were bilaterally ovariectomized using a dorsal approach. Animals were anesthetized with ketamine ([…]) and xylazine (10 mg/kg). A small (1 cm) cut was made through the skin, fascia, and muscle. […] Percent ischemic lesion area was calculated. * indicates p<0.05 vs. respective control group. […]
(§6) Each group of animals was decapitated 24 h after MCAO. […] Slices were then fixed in a 10% formalin and photographed by a digital camera (Sony MVC-FD5), and the ischemic lesion area were determined for each slice using the Image-Pro Plus software (Media Cybernectics, Silver Spring, Md.). Percent ischemic lesion area was calculated as the sum of the ischemic lesion area for the five slices divided by the total cross sectional area of these five slices.

[5] = as above; type: in vivo, rat; conditions: rats, doses given prior to MCA occlusion
Source text: as §3, §4, §5, §6

Compound: CCCCC/C=C/C=C1/C(=O)C=C[C@@H]1C/C=C\CCCC(=O)O [15d-PGJ2, 15-deoxy-Δ^12,14-PGJ2]
- EC50 [1]: 7 µM

Compound: Cc1c(C)c2c(c(C)c1O)CCC(C)(COc1ccc(CC3SC(=O)NC3=O)cc1)O2 (stereo not drawn) [troglitazone]
- protection against BSO [2]: protected
- protection against BSO [3]: protected
- reduction of infarct size compared to vehicle ([4]; rats treated prior to MCA occlusion, vehicle corn oil): about 50%
- reduction of ischemic lesion area compared to control animals ([4]; s.c. injection 12 h and 2 h before MCAO, 60 min occlusion, 24 h reperfusion): about 50%
- brain concentrations [5]: about 7 μM
